From PMC5316400, “Validation of precision-cut liver slices to study drug-induced cholestasis: a transcriptomics approach” (Archives of Toxicology, 2016)

Key:
[1] = adult patients, therapeutic dose, systemic blood; no reference given; cited from earlier work
[2] = system: human precision-cut liver slices (PCLS); assay: Transcriptomics of human PCLS: differentially regulated genes; assay type: cell-based; details: fold change of 1.5 and adjusted p value 0.05, 24 h, 60 μM bile acid mix
Experimental: (§1) Precision-cut liver slices of 5 mm diameter and 250 μm thickness were prepared (de Graaf et al. [2010]). At this thickness, full penetration of substrates has been shown. PCLS were made using the Krumdieck tissue slicer (Alabama R&D, Munford, AL, USA) in ice-cold Krebs buffer at pH 7.42, enriched with glucose to a final concentration of 25 mM, saturated with carbogen (95 % O2/5 % CO2). Immediately after the slices were made, they were placed in ice-cold University of Wisconsin organ preservation solution (UW, Dupont Critical Care, Waukegan, IL, USA) and stored on ice until the beginning of the experiment. Slices were pre-incubated individually in 12-well plates in 1.3 ml of Williams Medium E with glutamax-1 (Gibco, Invitrogen, Paisley, Scotland) supplemented with 25 mM D-glucose and 50 μg/ml gentamycin (Gibco, Invitrogen, Paisley, Scotland). In the incubator (Sanyo CO2/O2 Incubator, PANASONIC, Secaucus, NJ, USA), the plates were gently shaken (90 times/min) for 1 h under 80 % O2 and 5 % CO2 atmosphere at 37 °C. This pre-incubation allows the slices to restore their ATP levels. […] The plates were incubated under the same conditions for 24 h. All incubation conditions were carried out in triplicate. Each experiment was performed in slices of 6 different human livers (Table 1). Slices were harvested for ATP assay in 100 mM Tris buffer with 2 mM EDTA and for RNA isolation in RNAlater. The bile acid mix was added to the medium in order to create an environment similar to the physiological concentration in the portal vein. The composition of the serum bile acids was according to Scherer et al. ([2009]). Pilot experiments were performed to find out the non-toxic concentration of the bile acid mix.
(§2) Maxwell® 16 LEV Total RNA purification kit (Promega, The Netherlands) with Maxwell® 16 LEV Instrument was used to isolate RNA from the samples. Immediately after isolation, the RNA quality was assessed by measuring the 260/280 and 260/230 ratios, and the concentration was measured with the ND-1000 spectrophotometer (Fisher Scientific, Landsmeer, The Netherlands). The quality (RIN value) and quantity of the RNA were determined by high-throughput Caliper GX LabChip RNA kit (Caliper).
(§3) Ambion Illumina Total Prep RNA kit was used to transcribe 300 ng RNA to cRNA according to the manufacturer’s instructions. A total of 750 ng of cRNA was hybridized at 58 °C for 16 h to the Illumina HumanHT-12 v4 Expression BeadChips. BeadChips were scanned using Iscan software, and IDAT files were generated (Illumina, San Diego, CA, USA).
(§4) GenomeStudio software (Illumina) was used to read the IDAT files and generate raw expression values. The ArrayAnalysis web service (www.arrayanalysis.org/) was used for further preprocessing the data, which uses lumi R package (Eijssen et al. [2013]). Raw gene expression data were background-corrected (bgAdjust), variance-stabilized (VST) and normalized by quantile normalization. After normalization, the data were corrected for batch differences owing to RNA isolation and hybridization using the ComBat method implemented in the swamp package in R (Lauss et al. [2013]). Differentially expressed genes in slices exposed to the cholestatic drugs in the presence of bile acids versus the slices exposed to vehicle (DMSO) in the presence of bile acids were identified using the unpaired moderated t test in the limma package (Ritchie et al. [2015]). Genes that are regulated with a criterion of fold change of 1.5 (≤ or ≥1.5), and FDR-corrected p value ≤0.05 (Benjamini and Hochberg method) were chosen for pathway analysis. To compare our data with the scarcely available human in vivo data, human in vivo late-stage cholestasis data were downloaded from the Gene Expression Omnibus database (GSE46960).

[3] = system: Genes involved in unfolded protein response (UPR); assay: Microarray gene expression in human PCLS exposed to cholestatic drugs: unfolded protein response genes; assay type: cell-based; details: 100 μM; 24 h; 60 μM bile acid mix
Experimental: as §1, §2, §3, §4

[4] = system: Genes involved in the FXR pathway; assay: Microarray gene expression in human PCLS exposed to cholestatic drugs: FXR pathway genes; details: 100 μM; 24 h; 60 μM bile acid mix
Experimental: as §1, §2, §3, §4

[5] = C max in systemic blood of adult patients after a therapeutic dose; details: highest toxic concentration tested in human PCLS vs C max in adult patients
[6] = system: Genes involved in hepatic cholestasis pathway; assay: Microarray gene expression in human PCLS exposed to cholestatic drugs: hepatic cholestasis pathway genes; details: 100 μM; 24 h; 60 μM bile acid mix
Experimental: as §1, §2, §3, §4

For `C#C[C@]1(O)CC[C@H]2[C@@H]3CCc4cc(O)ccc4[C@H]3CC[C@@]21C` [EE, ethinyl estradiol], the Cmax [1] is given as 8.2 nM, the “Number of regulated genes” value ([2]; 25 μM) is given as 0 and the “Number of regulated genes” value ([2]; 50 μM) is given as 5. For the same compound, the “Number of regulated genes” value ([2]; 75 μM) was 63.
In the case of `C[C@]12CCC(=O)C=C1CC[C@@H]1[C@@H]2CC[C@@]2(C)[C@H]1CC[C@]2(C)O` [MT, methyl testosterone], the Cmax [1] is given as 130 nM, the ATF4 fold change [3] is given as 1.2 and the “DDIT3 (CHOP) fold change” value [3] is given as 2.9. It also gave a DNAJB9 fold change [3] of 1.3, an ERN1 fold change [3] of 3.0 and an HSPA9 fold change [3] of 1.3. For the same compound, the HSPH1 fold change [3] was 1.7, the INSIG1 fold change [3] was −1.5 and the NFE2L2 fold change [3] was −1.1. It also gave an SYVN1 fold change [3] of 1.1, an ABCB4 fold change [4] of −3.6 and an ABCB11 fold change [4] of −1.7. It also gave an ABCG5 fold change [4] of −1.6, an ABCG8 fold change [4] of −1.4 and an APOC2 fold change [4] of 1.0. It also gave an APOC4 fold change [4] of −1.4, an APOF fold change [4] of 1.1 and a BAAT fold change [4] of −1.4. For the same compound, the C3 fold change [4] was −2.0, the CYP8B1 fold change [4] was 1.1 and the CYP27A1 fold change [4] was −1.5. The FASN fold change [4] was 1.2, the FBP1 fold change [4] was 1.2 and the FETUB fold change [4] was −1.3. It also gave an FGA fold change [4] of 1.9, an ITIH4 fold change [4] of −1.4 and a KNG1 fold change [4] of −1.7. For the same compound, the “NR0B2 (SHP) fold change” value [4] was 1.3, the “NR1H3 (LXR) fold change” value [4] was −1.0 and the “NR1H4 (FXR) fold change” value [4] was −1.2. For the same compound, the PON1 fold change [4] was 1.1, the RXRA fold change [4] was −1.7 and the SCARB1 fold change [4] was −1.6. For the same compound, the SDC1 fold change [4] was −1.8, the SERPINF2 fold change [4] was −1.2 and the SLC22A7 fold change [4] was −1.5. The SLC51B fold change [4] was −2.8, the SULT2A1 fold change [4] was 1.7 and the “Number of regulated genes” value ([2]; 25 μM) was 11. The “Number of regulated genes” value ([2]; 50 μM) was 38, the “Number of regulated genes” value ([2]; 100 μM) was 233 and the “toxic concentration used in PCLS study relative to C max” value [5] was ~ 770 × C max. It also gave an ABCB4 fold change [6] of −3.6, an ABCB11 fold change [6] of −1.2 and an ABCC3 fold change [6] of −1.8. For the same compound, the ABCG5 fold change [6] was −1.7, the ABCG8 fold change [6] was −1.4 and the CYP8B1 fold change [6] was 1.1. For the same compound, the CYP27A1 fold change [6] was −1.5, the GCGR fold change [6] was −1.1 and the IL1B fold change [6] was −1.2. The IL1RL1 fold change [6] was 3.5, the IL1RN fold change [6] was 1.9 and the IRAK2 fold change [6] was 1.0. For the same compound, the JUN fold change [6] was 1.6, the NR0B2 fold change [6] was 1.0 and the NR1H3 fold change [6] was −1.3. It also gave an NR1H4 fold change [6] of −1.1, a PPRC1 fold change [6] of 1.1 and an RXRA fold change [6] of −1.7. The SLC22A7 fold change [6] was −1.1 and the TNFRSF1B fold change [6] was 1.1.
